Data on 21 compounds can be found in US20250388589A1, “TRICYCLIC HETEROCYCLIC DERIVATIVES, COMPOSITIONS AND USES THEREOF” (Danatlas Pharmaceuticals Co., Ltd., priority 2022, published 2025).

Experiment [1] has as its target hPARG (C-terminal His6-tag) (Homo sapiens (Human), UniProt Q86W56). Put plainly: PARG Enzymatic Activity Assay (HTRF). The settings on record: hPARG 65 pM final, biotinylated-NAD ribosylated PARP1 8 nM final. It counts as biochemical. The method in brief:
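E. coli-expressed enzyme (65 pM final) preincubated 60 min RT with compounds (10-point 4-fold dilution, duplicate) in 50 mM Tris pH 7.4, 3 mM EDTA, 1 mM DTT, 50 mM KCl, 0.01% Tween 20. Biotinylated-NAD ribosylated PARP1 substrate (8 nM final) reacted 10 min RT; Eu-streptavidin/anti-6HIS-XL665 HTRF read 665/620 nm after 60 min. IC50 from 4-parameter Hill fit.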

In another experiment the test system is Kuramochi cell line. The experiment in a line: Cell Viability Assay (Cell Titer-Glo, 7 days). The note with it: 168 h, Kuramochi cells, 7 days incubation, read-out: PARG Cell viability (IC50). It counts as cell-based. The method in brief: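 Kuramochi cells in RPMI with 10% FBS, seeded at 400 cells/well, were treated with a 9-point 3-fold dilution series in duplicate for 7 days at 37 °C, 5% CO2. Viability by CellTiter-Glo luminescence, normalised to DMSO and medium-only controls; IC50 from 4-parameter Hill fit.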

SMILES strings stand for the structures.

Chain of hPARG (C-terminal His6-tag) (Q86W56 whole entry): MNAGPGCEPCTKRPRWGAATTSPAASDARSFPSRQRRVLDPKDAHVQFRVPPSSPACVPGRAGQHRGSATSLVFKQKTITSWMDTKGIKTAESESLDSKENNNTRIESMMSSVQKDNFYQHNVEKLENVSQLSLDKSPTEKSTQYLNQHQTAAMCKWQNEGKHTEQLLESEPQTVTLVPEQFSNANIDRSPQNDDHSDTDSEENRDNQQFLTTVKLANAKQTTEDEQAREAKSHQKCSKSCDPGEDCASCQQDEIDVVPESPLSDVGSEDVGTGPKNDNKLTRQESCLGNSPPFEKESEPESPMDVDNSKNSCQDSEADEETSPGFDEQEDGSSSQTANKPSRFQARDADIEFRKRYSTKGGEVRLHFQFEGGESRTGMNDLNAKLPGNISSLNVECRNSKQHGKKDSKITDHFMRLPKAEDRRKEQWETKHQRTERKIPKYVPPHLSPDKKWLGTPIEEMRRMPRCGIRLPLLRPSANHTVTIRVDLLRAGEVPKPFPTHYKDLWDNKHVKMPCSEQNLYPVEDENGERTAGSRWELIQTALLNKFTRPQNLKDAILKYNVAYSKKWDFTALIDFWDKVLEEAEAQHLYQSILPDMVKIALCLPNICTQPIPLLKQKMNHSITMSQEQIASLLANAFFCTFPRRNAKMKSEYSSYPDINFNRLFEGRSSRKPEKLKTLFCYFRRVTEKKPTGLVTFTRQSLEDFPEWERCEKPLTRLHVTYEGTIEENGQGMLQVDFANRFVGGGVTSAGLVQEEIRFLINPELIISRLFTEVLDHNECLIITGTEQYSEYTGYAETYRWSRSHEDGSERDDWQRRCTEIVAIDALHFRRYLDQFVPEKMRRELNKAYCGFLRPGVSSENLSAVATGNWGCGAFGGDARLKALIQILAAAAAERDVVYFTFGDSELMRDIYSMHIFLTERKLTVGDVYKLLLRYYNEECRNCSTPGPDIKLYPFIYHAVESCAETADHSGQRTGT

As to `CC1(NS(=O)(=O)c2ccc3c4c(N5CCN6CCOC[C@H]6C5)ncnc4n(-c4nnc(C(F)F)s4)c3c2)CC1` [Example 184, (R)-9-(5-(Difluoromethyl)-1,3,4-thiadiazol-2-yl)-4-(hexahydropyrazino[2,1-c][1,4]oxazin-8(1H)-yl)-N-(1-methylcyclopropyl)-9H-pyrimido[4,5-b]indole-7-sulfonamide], the half-inhibitory concentration (IC50) was less than 100 nM in experiment [1] and 100 to 1000 nM in the experiment on Kuramochi cell line.

Take `Cc1nnc(-n2c3cc(S(=O)(=O)NC4(C#N)CC4)ccc3c3c(N4CCN(C(=O)C5CC5)CC4)ncnc32)s1` [Example 185, N-(1-Cyanocyclopropyl)-4-(4-(cyclopropanecarbonyl)piperazin-1-yl)-9-(5-methyl-1,3,4-thiadiazol-2-yl)-9H-pyrimido[4,5-b]indole-7-sulfonamide]: the IC50 (in experiment [1]; with Kuramochi cell line) was 100 to 1000 nM each time.

As to `CC(C)c1nnc(-n2c3cc(S(=O)(=O)NC4(C#N)CC4)ccc3c3c(N4CCN(C(=O)C5CC5)CC4)ncnc32)s1` [Example 186, N-(1-Cyanocyclopropyl)-4-(4-(cyclopropanecarbonyl)piperazin-1-yl)-9-(5-isopropyl-1,3,4-thiadiazol-2-yl)-9H-pyrimido[4,5-b]indole-7-sulfonamide], the IC50 (in experiment [1]; with Kuramochi cell line) was 100 to 1000 nM in each case.

On to `N#CC1(NS(=O)(=O)c2ccc3c4c(N5CCN(C(=O)C6CC6)CC5)ncnc4n(-c4nnc(C(F)(F)F)s4)c3c2)CC1` [Example 188, N-(1-Cyanocyclopropyl)-4-(4-(cyclopropanecarbonyl)piperazin-1-yl)-9-(5-(trifluoromethyl)-1,3,4-thiadiazol-2-yl)-9H-pyrimido[4,5-b]indole-7-sulfonamide], for which the concentration for half-maximal inhibition (IC50) in experiment [1] is less than 100 nM; in the experiment with Kuramochi cell line, 100 to 1000 nM.

For the compound `N#CC1(NS(=O)(=O)c2ccc3c4c(N5CCC(O)CC5)ncnc4n(-c4nnc(C(F)F)s4)c3c2)CC1` [Example 189, N-(1-Cyanocyclopropyl)-9-(5-(difluoromethyl)-1,3,4-thiadiazol-2-yl)-4-(4-hydroxypiperidin-1-yl)-9H-pyrimido[4,5-b]indole-7-sulfonamide], the half-maximal inhibitory concentration (IC50) (in experiment [1]; in the experiment with Kuramochi cell line) was less than 100 nM each time.

Regarding `CC(C)C(=O)N1[C@H](C)CN(c2ncnc3c2c2ccc(S(=O)(=O)NC4(C)CC4)cc2n3-c2nnc(C(F)F)s2)C[C@@H]1C` [Example 190, 9-(5-(Difluoromethyl)-1,3,4-thiadiazol-2-yl)-4-((3R,5S)-4-isobutyryl-3,5-dimethylpiperazin-1-yl)-N-(1-methylcyclopropyl)-9H-pyrimido[4,5-b]indole-7-sulfonamide], the IC50 (in experiment [1]; in the experiment with Kuramochi cell line) was less than 100 nM throughout.

For the compound `N#CC1(NS(=O)(=O)c2ccc3c4c(N5CCC(O)(C(F)(F)F)CC5)ncnc4n(-c4nnc(C(F)F)s4)c3c2)CC1` [Example 191, N-(1-Cyanocyclopropyl)-9-(5-(difluoromethyl)-1,3,4-thiadiazol-2-yl)-4-(4-hydroxy-4-(trifluoromethyl)piperidin-1-yl)-9H-pyrimido [4,5-b]indole-7-sulfonamide], the IC50 (in experiment [1]; in the experiment with Kuramochi cell line) was less than 100 nM in each case.

Regarding `Cc1nc(N2CCN3CCOC[C@H]3C2)c2c3ccc(S(=O)(=O)NC4(C#N)CC4)cc3n(-c3nnc(C(F)F)s3)c2n1` [Example 192, (R)—N-(1-Cyanocyclopropyl)-9-(5-(difluoromethyl)-1,3,4-thiadiazol-2-yl)-4-(hexahydropyrazino[2,1-c][1,4]oxazin-8(1H)-yl)-2-methyl-9H-pyrimido[4,5-b]indole-7-sulfonamide], the IC50 in experiment [1] was 100 to 1000 nM; with Kuramochi cell line, less than 100 nM.

Regarding `C[C@@H]1CN(C)[C@@H](C)CN1c1ncnc2c1c1ccc(S(=O)(=O)NC3(C#N)CC3)cc1n2-c1nnc(C(F)F)s1` [Example 193, N-(1-Cyanocyclopropyl)-9-(5-(difluoromethyl)-1,3,4-thiadiazol-2-yl)-4-((2R,5S)-2,4,5-trimethylpiperazin-1-yl)-9H-pyrimido[4,5-b]indole-7-sulfonamide], the IC50 (in experiment [1]; in the experiment on Kuramochi cell line) was less than 100 nM each time.

For the compound `CN(C)C(=O)N1CC=C(c2ccnc3c2c2ccc(S(=O)(=O)NC4(C)CC4)cc2n3-c2nnc(C(F)F)s2)CC1` [Example 194, 4-(9-(5-(Difluoromethyl)-1,3,4-thiadiazol-2-yl)-7-(N-(1-methylcyclopropyl)sulfamoyl)-9H-pyrido[2,3-b]indol-4-yl)-N,N-dimethyl-3,6-dihydropyridine-1(2H)-carboxamide], the concentration for half-maximal inhibition (IC50) (in experiment [1]; with Kuramochi cell line) was 100 to 1000 nM throughout.

With `CN(C)C(=O)N1CCC(c2ccnc3c2c2ccc(S(=O)(=O)NC4(C)CC4)cc2n3-c2nnc(C(F)F)s2)CC1` [Example 195, 4-(9-(5-(Difluoromethyl)-1,3,4-thiadiazol-2-yl)-7-(N-(1-methylcyclopropyl)sulfamoyl)-9H-pyrido[2,3-b]indol-4-yl)-N,N-dimethylpiperidine-1-carboxamide], the figures for the IC50 (in experiment [1]; in the experiment with Kuramochi cell line) were less than 100 nM and 100 to 1000 nM, respectively.

In the case of `CC(C)C(=O)N1CC=C(c2ccnc3c2c2ccc(S(=O)(=O)NC4(C#N)CC4)cc2n3-c2nnc(C(F)F)s2)CC1` [Example 196, N-(1-Cyanocyclopropyl)-9-(5-(difluoromethyl)-1,3,4-thiadiazol-2-yl)-4-(1-isobutyryl-1,2,3,6-tetrahydropyridin-4-yl)-9H-pyrido[2,3-b]indole-7-sulfonamide], the IC50 in experiment [1] was less than 100 nM; in the experiment on Kuramochi cell line, 100 to 1000 nM.

Regarding `CC(C)C(=O)N1CCC(c2ccnc3c2c2ccc(S(=O)(=O)NC4(C#N)CC4)cc2n3-c2nnc(C(F)F)s2)CC1` [Example 197, N-(1-Cyanocyclopropyl)-9-(5-(difluoromethyl)-1,3,4-thiadiazol-2-yl)-4-(1-isobutyrylpiperidin-4-yl)-9H-pyrido[2,3-b]indole-7-sulfonamide], the IC50 is less than 100 nM in experiment [1] and 100 to 1000 nM in the experiment with Kuramochi cell line.

As to `CN1CCN(c2ccnc3c2c2ccc(S(=O)(=O)NC4(C#N)CC4)cc2n3-c2nnc(C(F)F)s2)CC1` [Example 198, N-(1-Cyanocyclopropyl)-9-(5-(difluoromethyl)-1,3,4-thiadiazol-2-yl)-4-(4-methylpiperazin-1-yl)-9H-pyrido[2,3-b]indole-7-sulfonamide], the IC50 (in experiment [1]; with Kuramochi cell line) was less than 100 nM throughout.

For the compound `C[C@@H]1COCCN1c1ncnc2c1c1ccc(S(=O)(=O)NC3(C#N)CC3)cc1n2-c1nnc(C(F)F)s1` [Example 199, (R)—N-(1-Cyanocyclopropyl)-9-(5-(difluoromethyl)-1,3,4-thiadiazol-2-yl)-4-(3-methylmorpholino)-9H-pyrimido[4,5-b]indole-7-sulfonamide], the IC50 (in experiment [1]; in the experiment with Kuramochi cell line) was less than 100 nM throughout.

For `C[C@@H]1CO[C@@H](C)CN1c1ncnc2c1c1ccc(S(=O)(=O)NC3(C#N)CC3)cc1n2-c1nnc(C(F)F)s1` [Example 200, N-(1-Cyanocyclopropyl)-9-(5-(difluoromethyl)-1,3,4-thiadiazol-2-yl)-4-((2S,5R)-2,5-dimethylmorpholino)-9H-pyrimido[4,5-b]indole-7-sulfonamide], the IC50 (in experiment [1]; with Kuramochi cell line) was less than 100 nM each time.

Consider `N#CC1(NS(=O)(=O)c2ccc3c4c(N5CC6CCC(C5)O6)ncnc4n(-c4nnc(C(F)F)s4)c3c2)CC1` [Example 201, 4-(8-Oxa-3-azabicyclo[3.2.1]octan-3-yl)-N-(1-cyanocyclopropyl)-9-(5-(difluoromethyl)-1,3,4-thiadiazol-2-yl)-9H-pyrimido[4,5-b]indole-7-sulfonamide], for which the IC50 (in experiment [1]; in the experiment on Kuramochi cell line) was less than 100 nM throughout.

Take `N#CC1(NS(=O)(=O)c2ccc3c4c(N5C[C@H]6C[C@@H]5CO6)ncnc4n(-c4nnc(C(F)F)s4)c3c2)CC1` [Example 202, 4-((1R,4R)-2-Oxa-5-azabicyclo[2.2.1]heptan-5-yl)-N-(1-cyanocyclopropyl)-9-(5-(difluoromethyl)-1,3,4-thiadiazol-2-yl)-9H-pyrimido[4,5-b]indole-7-sulfonamide]: the IC50 (in experiment [1]; in the experiment on Kuramochi cell line) was less than 100 nM each time.

For the compound `CN1CCN(c2ncnc3c2c2ccc(S(=O)(=O)NC4(C#N)CC4)cc2n3-c2nnc(C(F)F)s2)C[C@@H]1CF` [Example 203, (R)—N-(1-Cyanocyclopropyl)-9-(5-(difluoromethyl)-1,3,4-thiadiazol-2-yl)-4-(3-(fluoromethyl)-4-methylpiperazin-1-yl)-9H-pyrimido[4,5-b]indole-7-sulfonamide], the concentration for half-maximal inhibition (IC50) (in experiment [1]; with Kuramochi cell line) was less than 100 nM throughout.

Regarding `COC[C@H]1CN(c2ncnc3c2c2ccc(S(=O)(=O)NC4(C#N)CC4)cc2n3-c2nnc(C(F)F)s2)CCN1C` [Example 204, (R)—N-(1-Cyanocyclopropyl)-9-(5-(difluoromethyl)-1,3,4-thiadiazol-2-yl)-4-(3-(methoxymethyl)-4-methylpiperazin-1-yl)-9H-pyrimido[4,5-b]indole-7-sulfonamide], the IC50 (in experiment [1]; in the experiment on Kuramochi cell line) was less than 100 nM each time.

For the compound `C[C@H]1CN(c2ncnc3c2c2ccc(S(=O)(=O)NC4(C#N)CC4)cc2n3-c2nnc(C(F)F)s2)CCN1CC#N` [Example 205, (S)—N-(1-Cyanocyclopropyl)-4-(4-(cyanomethyl)-3-methylpiperazin-1-yl)-9-(5-(difluoromethyl)-1,3,4-thiadiazol-2-yl)-9H-pyrimido[4,5-b]indole-7-sulfonamide], the concentration for half-maximal inhibition (IC50) (in experiment [1]; in the experiment with Kuramochi cell line) was less than 100 nM in each case.
